System: H929 MM cells
Test: H929 MM cell lysis with TCB alone or combined with lenalidomide, anti-PD-1 or daratumumab (co-culture with human leukocytes, flow cytometry)
Assay type: cell-based
Conditions: H929 cells + leucocytes of Donor 1, 48 h
From the text: FIGS. 21A-21B. Redirected T-cell lysis of H929 MM cells induced by anti-BCMA/anti-CD3 T-cell bispecific antibodies in combination with thalidomide derivatives (lenalidomide) or immunotherapeutic derivatives (anti-PD1 and anti-CD38 antibodies) as measured by flow cytometry. H929 MM cells were co-cultured with human leukocytes (n=1 or 5) and challenged to suboptimal concentrations of anti-BCMA/anti-CD3 T-cell bispecific antibody 83A10-TCcv (10 pM) (FIG. 21A) or 42-TCBcv (10 pM) (FIG. 21B) alone, in combination with suboptimal concentrations of lenalidomide (1 μM), anti-PD-1 (10 μg/ml) and anti-CD38 daratumumab (10 μg/ml).
Anti-BCMA/anti-CD3 T-cell bispecific antibody (namely 83A10-TCBcv or 42-TCBcv) was combined with three drugs representing different types of immunotherapy: lenalidomide, anti-PD-1 antibody and anti-CD38 antibody daratumumab. H929 MM cells were co-cultured with human leukocytes from healthy donors (n=1 or 5) in RPMI-1640 medium supplemented with 10% FBS, 0.5% gentamincin and 1% L-Glutamine at 37° C. in a humidified 5% CO2 incubator and challenged to suboptimal concentrations of 83A10-TCBcv (10 pM) (n=5) or 42-TCBcv (10 pM) (n=1) alone, or in combination with lenalidomide (1 μM), anti-PD-1 antibody (10 μg/ml) and anti-CD38 antibody daratumumab (10 μg/ml). […] FIG. 21B and Table 28 show the percentage of MM cell lysis when H929 cells and leucocytes from one healthy donor were exposed to 42-TCBcv (10 pM) combined with lenalidomide (1 μM), anti-PD-1 antibody (10 μg/ml) and anti-CD38 antibody daratumumab (10 μg/ml) for 48 h of culture.

[1] = with TCB (combination with 42-TCBcv)

Compound | MM cell lysis [1] | MM cell lysis (without TCB)
Nc1cccc2c1CN(C1CCC(=O)NC1=O)C2=O (stereo not shown) [lenalidomide] | 13.27% | −1.78%
Daratumumab: anti-CD38 antibody (US20150246123) | 42.29% | 33.06%

— US20220002427A1, “BISPECIFIC ANTIBODY AGAINST BCMA AND CD3 AND AN IMMUNOLOGICAL DRUG FOR COMBINED USE IN TREATING MULTIPLE MYELOMA” (ENGMAB SARL, priority 2016, published 2022)
